For assay [1], the target named is T1, WT Fumarase (FumC, class II) (Escherichia coli, UniProt P05042).
T1 construct: full length, N-terminal leader […]; (His tag, T7 gene 10 leader, Xpress) in pBAD, expressed in E. coli XL1-Blue; homotetramer
T1 sequence (P05042 1-467): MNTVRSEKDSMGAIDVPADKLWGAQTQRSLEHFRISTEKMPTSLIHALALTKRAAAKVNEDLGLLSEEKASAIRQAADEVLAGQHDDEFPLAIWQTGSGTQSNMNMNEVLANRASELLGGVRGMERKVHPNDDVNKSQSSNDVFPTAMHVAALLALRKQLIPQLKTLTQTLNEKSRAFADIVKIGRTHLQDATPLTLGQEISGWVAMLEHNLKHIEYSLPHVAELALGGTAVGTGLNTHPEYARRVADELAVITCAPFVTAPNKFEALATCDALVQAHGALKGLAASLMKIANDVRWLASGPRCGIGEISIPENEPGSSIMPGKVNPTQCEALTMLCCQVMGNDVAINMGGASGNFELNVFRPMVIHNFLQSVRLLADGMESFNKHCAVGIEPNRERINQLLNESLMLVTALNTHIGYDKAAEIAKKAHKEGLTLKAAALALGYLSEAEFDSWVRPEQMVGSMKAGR
In words: UV absorbance of fumarate, Lineweaver-Burk. It counts as biochemical. The conditions noted are these: potassium phosphate buffer, 20 nM enzyme; free enzyme.

For assay [2], the system named is T2, Single-chain E. coli Fumarase #2.
T2 construct: gene fumC
To be noted: potassium phosphate buffer, 1 µM enzyme.

In assay [3] the test system is H23 fusion (MDH-scaffolded KKRQKKKRK linker-fumarase). The conditions noted are these: fumarase component; potassium phosphate buffer, 20 nM enzyme; free enzyme.
Assay [4] relates to V0 fusion (MDH-G4SG4S-fumarase). The conditions noted are these: fumarase component; potassium phosphate buffer, 20 nM enzyme; free enzyme.
Assay [5] relates to Single-chain T. thermophilus Fumarase #1 H23 MDH Linkage (T1-H23). To be noted: fumarase component; potassium phosphate buffer, 1 µM enzyme.
Assay [6] relates to T3, Single-chain T. thermophilus Fumarase #1.
T3 construct: gene fumC
The conditions noted are these: potassium phosphate buffer, 1 µM enzyme.

Assay [7] has as its system Single-chain T. thermophilus Fumarase #1 V0 MDH Linkage (T1-V0). To be noted: fumarase component; potassium phosphate buffer, 1 µM enzyme.
Assay [8] concerns V0 fusion (MDH-G4SG4S-fumarase). The conditions noted are these: MDH component, fumarase part inactivated; 50 mM NAD+, potassium phosphate buffer, 1 nM enzyme.
Assay [9] deals with Single-chain T. thermophilus Fumarase #1 V0 MDH Linkage (T1-V0). The conditions noted are these: MDH component; 50 mM NAD+, potassium phosphate buffer; not told whether the fumarase part was inactivated.
Assay [10] concerns H23 fusion (MDH-scaffolded KKRQKKKRK linker-fumarase). The conditions noted are these: MDH component, fumarase part inactivated; 50 mM NAD+, potassium phosphate buffer, 1 nM enzyme.
In assay [11] the test system is Single-chain T. thermophilus Fumarase #1 H23 MDH Linkage (T1-H23). To be noted: MDH component; 50 mM NAD+, potassium phosphate buffer; not told whether the fumarase part was inactivated.
Assay [12] addresses V0 fusion (MDH-G4SG4S-fumarase). Nature of the assay: inhibition of fumarate to NADH cascade, Lineweaver-Burk. In kind it is biochemical, Escherichia coli. To be noted: 500 µM NAD+, fumarate 0.25-8 mM, 100 mM potassium phosphate, 0.5 nM enzyme; competitive at the MDH part; cascade read-out; read-out: apparent Ki. The procedure:
inhibition of fumarate to NADH cascade, Lineweaver-Burk on V0 fusion (MDH-G4SG4S-fumarase) | the apparent inhibition constant (Ki) of citrate on the enzymatic cascade was determined

Assay [13] concerns the target H23 fusion (MDH-scaffolded KKRQKKKRK linker-fumarase). The assay is described as above. It counts as biochemical, Escherichia coli. To be noted: 500 µM NAD+, fumarate 0.25-8 mM, 100 mM potassium phosphate, 0.5 nM enzyme; competitive at the MDH part; cascade read-out; read-out: apparent Ki.

Like-named read-outs stand apart in the source and are kept apart here.

Turning to `O=C(O)/C=C/C(=O)O` [fumarate], the Km was 443 ± 101 µM in [1]; 758 ± 192 µM in [2]; 934 ± 66 µM in assay [3]; 759 ± 51 µM in [4]; 972 ± 62 µM in assay [5]; 809 ± 59 µM in assay [6]. For the same compound, the Km in assay [7] is 969 ± 61 µM.

In the case of `O=C(O)C[C@H](O)C(=O)O` [malate], the Km in [8] was 1210 ± 70 µM; in assay [9], 1050 ± 390 µM; in assay [10], 1220 ± 60 µM; in assay [11], 1150 ± 370 µM.

Regarding `O=C(O)CC(O)(CC(=O)O)C(=O)O` [citrate], the values for the Ki in assay [12] and in assay [13] were 1.65 ± 0.15 mM and 8.57 ± 0.71 mM, respectively.

As a reminder, the Km is the substrate concentration at which the rate is half of its maximum.

Values taken from article doi:10.1101/2025.11.21.689824v1, “Fluorescent Biosensor-Guided Engineering of Enzyme Cascades for Electrochemical Applications” (biorxiv, 2025).
